From patent publication US12428406B2 (PMV Pharmaceuticals, Inc., priority 2019, dated 2025)

Each compound was assayed against T1, p53 Y220C (Homo sapiens, UniProt P04637, Y220C) (assay: In vitro DNA binding activity assay (HTRF / TR-FRET): stabilization of p53 Y220C and increase of its DNA binding activity). Settings: recombinant His-tagged p53 Y220C DNA binding domain (aa 94-312), biotin-labeled consensus DNA, incubated at 27° C. or 29° C. for 60 min.
T1 construct: The recombinant protein was a truncation mutant containing only amino acids 94-312 of p53; made in house; host or cells: E. coli
T1 sequence (P04637 94-312, change not shown): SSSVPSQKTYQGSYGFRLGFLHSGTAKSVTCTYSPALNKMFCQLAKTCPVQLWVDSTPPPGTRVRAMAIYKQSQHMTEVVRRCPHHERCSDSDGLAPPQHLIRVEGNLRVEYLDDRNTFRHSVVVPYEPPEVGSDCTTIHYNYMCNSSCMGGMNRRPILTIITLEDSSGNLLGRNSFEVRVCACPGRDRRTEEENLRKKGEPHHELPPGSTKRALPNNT
Format: biochemical
Outline: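 His-tagged p53 Y220C, E. coli-expressed, binding biotin-labeled consensus DNA measured by HTRF (anti-His-APC, streptavidin-europium). Compounds from 4.5 mM DMSO stocks, 3-fold serial dilutions; incubations at room temperature 15 min, then 20 min. SC150 = concentration raising DNA binding by 50%.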

SMILES | SC150 (concentration of the compound required to increase the DNA binding activity by 50%)
COc1cc(C(=O)O)ccc1NCC#Cc1cc2c(NC3CCN(C4CC4)CC3)cccc2n1CC(F)(F)F [Compound 721A, 4-[(3-{4-[(1-cyclopropylpiperidin-4-yl)amino]-1-(2,2,2-trifluoroethyl)-1H-indol-2-yl}prop-2-yn-1-yl)amino]-3-methoxybenzoic acid] | + (+ = 0 μM ≤ SC150 < 0.05 μM)
COc1cc(S(N)(=O)=O)ccc1NCC#Cc1cc2c(NC3CC4(CNC4)C3)cccc2n1CC(F)(F)F [Compound 21A, 4-({3-[4-({2-azaspiro[3.3]heptan-6-yl}amino)-1-(2,2,2-trifluoroethyl)-1H-indol-2-yl]prop-2-yn-1-yl}amino)-3-methoxybenzene-1-sulfonamide] | + (+ = 0 μM ≤ SC150 < 0.05 μM)
COCC(CN1CCC(Nc2cccc3c2cc(C#CCNc2ccc(S(C)(=O)=O)cc2OC)n3CC(F)(F)F)CC1)OC (stereo not drawn) [Compound 580A, N-[1-(2,3-dimethoxypropyl)piperidin-4-yl]-2-{3-[(4-methanesulfonyl-2-methoxyphenyl)amino]prop-1-yn-1-yl}-1-(2,2,2-trifluoroethyl)-1H-indol-4-amine] | + (+ = 0 μM ≤ SC150 < 0.05 μM)
CNC(=O)c1ccc(NCC#Cc2cc3c(N[C@H]4CC[C@H](N5CC6(CCC6)C5)CC4)cccc3n2CC(F)(F)F)c(OC)c1 [Compound 196A, 3-methoxy-N-methyl-4-{[3-(4-{[(1R,4R)-4-{2-azaspiro[3.3]heptan-2-yl}cyclohexyl]amino}-1-(2,2,2-trifluoroethyl)-1H-indol-2-yl)prop-2-yn-1-yl]amino}benzamide] | + (+ = 0 μM ≤ SC150 < 0.05 μM)
CCNC(=O)c1ccc(NCC#Cc2cc3c(N[C@@H]4CCN(C)C[C@@H]4F)cccc3n2CC(F)(F)F)c(O)c1 [Compound 1060A, N-ethyl-4-{[3-(4-{[(3S,4R)-3-fluoro-1-methylpiperidin-4-yl]amino}-1-(2,2,2-trifluoroethyl)-1H-indol-2-yl)prop-2-yn-1-yl]amino}-3-hydroxybenzamide] | + (+ = 0 μM ≤ SC150 < 0.05 μM)
COc1cc(C(N)=O)ccc1NCC#Cc1cc2c(N[C@@H]3CCO[C@@H](C)C3)cccc2n1CC(F)(F)F [Compound 1020A, 3-methoxy-4-{[3-(4-{[(2S,4R)-2-methyloxan-4-yl]amino}-1-(2,2,2-trifluoroethyl)-1H-indol-2-yl)prop-2-yn-1-yl]amino}benzamide] | + (+ = 0 μM ≤ SC150 < 0.05 μM)
COc1cc(S(C)(=O)=O)ccc1NCC#Cc1cc2c(N[C@H]3CCN(C(C)(C)C)C[C@H]3F)cccc2n1CC(F)(F)F [Compound 1069A, N-[(3R,4S)-1-tert-butyl-3-fluoropiperidin-4-yl]-2-{3-[(4-methanesulfonyl-2-methoxyphenyl)amino]prop-1-yn-1-yl}-1-(2,2,2-trifluoroethyl)-1H-indol-4-amine] | + (+ = 0 μM ≤ SC150 < 0.05 μM)
CNC(=O)c1ccc(NCC#Cc2cc3c(N[C@H]4CC[C@H](N5CC6CC(C5)O6)CC4)cccc3n2CC(F)(F)F)c(OC)c1 [Compound 402A, 3-methoxy-N-methyl-4-{[3-(4-{[(1R,4R)-4-{6-oxa-3-azabicyclo[3.1.1]heptan-3-yl}cyclohexyl]amino}-1-(2,2,2-trifluoroethyl)-1H-indol-2-yl)prop-2-yn-1-yl]amino}benzamide] | + (+ = 0 μM ≤ SC150 < 0.05 μM)
CCC(=O)N1CCC(Nc2cccc3c2cc(C#CCNc2ccc(S(C)(=O)=O)cc2OC)n3CC(F)(F)F)CC1 [Compound 756A] | + (+ = 0 μM ≤ SC150 < 0.05 μM)
